According to ChEMBL document CHEMBL3044777, “Weed control and sweet maize (Zea mays L.) yield as affected by pyroxasulfone dose” (2011):

Assays:
Type in all cases: functional
[1] = test system: Digitaria; assay: Herbicide activity against Digitaria assessed as weed control at 274 g/ha in presence of 2% organic matter on soil
[2] = test system: Digitaria sanguinalis; assay: Herbicide activity against Digitaria sanguinalis assessed as weed control at 31.25 g/ha
[3] = test system: Abutilon theophrasti; assay: Herbicide activity against Abutilon theophrasti (velvetleaf) assessed as weed control at 31.25 g/ha
[4] = test system: Echinochloa crus-galli; assay: Herbicide activity against Echinochloa crus-galli (barnyard grass) assessed as weed control at 31.25 g/ha
[5] = test system: Amaranthus palmeri; assay: Herbicide activity against Amaranthus […] (Moq.) Sauer. assessed as weed control at 152 g/ha
[6] = test system: Amaranthus palmeri; assay: Herbicide activity against Amaranthus palmeri S.Watson assessed as weed control at 125 g/ha
[7] = test system: Amaranthus; assay: Herbicide activity against Amaranthus sp. assessed as weed control at 1000 g/ha
[8] = test system: Setaria viridis; assay: Herbicide activity against Setaria viridis (green foxtail) assessed as weed control measured after pre-emergence treatment in southwestern ontario
[9] = test system: Chenopodium album; assay: Herbicide activity against Chenopodium album assessed as weed control measured after pre-emergence treatment in southwestern ontario
[10] = test system: Amaranthus retroflexus; assay: Herbicide activity against Amaranthus retroflexus assessed as weed control measured after pre-emergence treatment in southwestern ontario

Cn1nc(C(F)(F)F)c(CS(=O)(=O)C2=NOC(C)(C)C2)c1OC(F)F [PYROXASULFONE]
Activity [1]: 90% | Activity [2]: 90% | Activity [3]: 90% | Activity [4]: 90% | Activity [5]: 90% | Activity [6]: 95% | Activity [7]: 90% | I90 [8]: 111 g/ha | I90 [9]: 499 g/ha | I90 [10]: 93 g/ha
